From ChEMBL document CHEMBL3046333, “Synthesis and bioevaluation of novel analogues of justicidin A” (Med Chem Res, 2010)

Tested on: HepG2
Assay: Cytotoxicity against Homo sapiens (human) HepG2 cells after 3 days by MTT assay
Assay type: functional, cell-based
Conditions: HepG2, 72 h

CCOc1c2c(c(-c3ccc4c(c3)OCO4)c3cc(OC)c(OC)cc13)C(=O)OC2
IC50: 141 µM

CCCOc1c2c(c(-c3ccc4c(c3)OCO4)c3cc(OC)c(OC)cc13)C(=O)OC2
IC50: 152 µM

CCCCOc1c2c(c(-c3ccc4c(c3)OCO4)c3cc(OC)c(OC)cc13)C(=O)OC2
IC50: 127 µM

CCCCCOc1c2c(c(-c3ccc4c(c3)OCO4)c3cc(OC)c(OC)cc13)C(=O)OC2
IC50: 291 µM

COc1cc2c(OCCBr)c3c(c(-c4ccc5c(c4)OCO5)c2cc1OC)C(=O)OC3
IC50: 263 µM

COc1cc2c(OCCCBr)c3c(c(-c4ccc5c(c4)OCO5)c2cc1OC)C(=O)OC3
IC50: 161 µM

COc1cc2c(OCCCCBr)c3c(c(-c4ccc5c(c4)OCO5)c2cc1OC)C(=O)OC3
IC50: 155 µM

COc1cc2c(OCCCCCBr)c3c(c(-c4ccc5c(c4)OCO5)c2cc1OC)C(=O)OC3
IC50: 207 µM

COc1cc2c(OCCCCCCBr)c3c(c(-c4ccc5c(c4)OCO5)c2cc1OC)C(=O)OC3
IC50: 167 µM

COc1cc2c(O)c3c(c(-c4ccc5c(c4)OCO5)c2cc1OC)C(=O)OC3 [DIPHYLLIN]
IC50: > 500 µM

COc1cc([C@@H]2c3cc4c(cc3[C@@H](O[C@@H]3O[C@@H]5CO[C@@H](C)O[C@H]5[C@H](O)[C@H]3O)[C@H]3COC(=O)[C@H]23)OCO4)cc(OC)c1O [ETOPOSIDE]
IC50: 427 µM

COc1cc2c(OC)c3c(c(-c4ccc5c(c4)OCO5)c2cc1OC)C(=O)OC3 [JUSTICIDIN A]
IC50: 163 µM
